The source of these data is US20230135215A1, “COMPOUNDS AS CDK2/4/6 INHIBITORS” (Fochon Biosciences, Ltd., priority 2020, published 2023).

For one assay, the system named is HCC1806 cells. Briefly: Cell proliferation assay (MTS), HCC1806 (CDK4/6 independent) cells. Type of assay: cell-based. Conditions: Homo sapiens, HCC1806 (CDK4/6 independent) cell proliferation inhibition, 120 h incubation, absorbance 490 nm. From the text: (§1) MTS testing kit was purchased from Promega (Madison, Wis., USA). The RPMI-1640, DMEM, Fetal bovine serum and Penicillin-Streptomycin were purchased from BI (Biological Industries, Beit Haemek, Israel). Dimethyl sulfoxide (DMSO) was purchased from Sigma (St. Louis, Mo., USA).
(§2) To investigate whether a compound is able to inhibit the activity of CDK2/4/6 in cells, we developed a mechanism-based assay using HCC1806 (CDK4/6 independent) and Hs68 (CDK4/6 dependent) cell lines. In this assay, inhibition of CDK2/4/6 was detected by the cell proliferation inhibition of HCC1806 and Hs68 cells. HCC806 and HS68 cells cultured in PRMI-1640 and DMEM supplemented with 10% fetal bovine serum respectively to 40-80% confluence were collected and plated into 96-well plates at desired cell density of 5×10^3/mL. Plates were incubated at 37° C., with 5% CO2 for 24 h. Compounds were serially diluted and added to the plates with the final concentrations as 10000, 3333.3, 1111.1, 370.4, 123.5, 41.2, 13.7, 4.6 and 1.5 nM. Plates were incubated at 37° C., with 5% CO2 for 120 h. A mixture of 20 μl MTS/100 μl medium were added to each well and the plates were incubated at 37° C., with 5% CO2 for exactly 2 h. The absorbance was measured by a microplate reader at 490 nm. IC50 was calculated using GraphPad Prism 5.0 software.

Another assay relates to Hs68 cells. The assay can be described thus: Cell proliferation assay (MTS), Hs68 (CDK4/6 dependent) cells. It counts as cell-based. Conditions: Homo sapiens, Hs68 (CDK4/6 dependent) cell proliferation inhibition, 120 h incubation, absorbance 490 nm.
Description: as §1, §2

pIC50: −log10 of the molar value.

As to `CS(=O)(=O)N1CCC(Nc2ncc3ccc(=O)n(C4CCCC45CC5)c3n2)CC1` (stereo not drawn) [Example 1, 2-((1-(Methylsulfonyl)piperidin-4-yl)amino)-8-(spiro[2,4]heptan-4-yl)pyrido[2,3-d]pyrimidin-7(8H)-one], the values for the pIC50 in the assay with HCC1806 cells and in the assay with Hs68 cells were 6.42 and 6.50, respectively.

In the case of `CS(=O)(=O)N1CCC(Nc2ncc3cc(Br)c(=O)n(C4CCCC45CC5)c3n2)CC1` (stereo not drawn) [Example 8, 6-Bromo-2-((1-(methylsulfonyl)piperidin-4-yl)amino)-8-(spiro[2,4]heptan-4-yl)pyrido[2,3-d]pyrimidin-7(8H)-one], the pIC50 was 6.52 in the assay with HCC1806 cells and 6.98 in the assay with Hs68 cells.

`CS(=O)(=O)N1CCC(Nc2ncc3cc(C(F)F)c(=O)n([C@@H]4CCCC45CC5)c3n2)CC1` [Example 19, (R)-6-(difluoromethyl)-2-((1-(methyl-sulfonyl)piperidin-4-yl)amino)-8-(spiro[2.4]heptan-4-yl)pyrido[2,3-d]pyrimidin-7(8H)-one]: the pIC50 in the assay with HCC1806 cells was 6.86.

`CS(=O)(=O)N1CCC(Nc2ncc3cc(F)c(=O)n(C4CCCC45CC5)c3n2)CC1` (stereo not drawn) [Example 22, 6-fluoro-2-((1-(methylsulfonyl)piperidin-4-yl)amino)-8-(spiro[2.4]heptan-4-yl) pyrido[2,3-d]pyrimidin-7(8H)-one] gave a pIC50 in the assay on HCC1806 cells of 6.50.

Turning to `CS(=O)(=O)N1CCC(Nc2ncc3cc(C(F)F)c(=O)n([C@H]4CCCC45CC5)c3n2)CC1` [Example 20, (S)-6-(difluoromethyl)-2-((1-(methylsulfonyl)piperidin-4-yl)amino)-8-(spiro[2.4]heptan-4-yl)pyrido[2,3-d]pyrimidin-7(8H)-one], in the assay with HCC1806 cells, the pIC50 is 6.68.

The molecule `CS(=O)(=O)N1CCC(Nc2ncc3cc(C(F)F)c(=O)n(C4CCCC45CC5)c3n2)CC1` (stereo not drawn) [Example 18, 6-(difluoromethyl)-2-((1-(methylsulfonyl)piperidin-4-yl)amino)-8-(spiro[2.4]heptan-4-yl)pyrido[2,3-d]pyrimidin-7(8H)-one] had a pIC50 in the assay with HCC1806 cells of 6.63.

Consider `CS(=O)(=O)N1CCC(Nc2ncc3cc(Cl)c(=O)n(C4CCCC45CC5)c3n2)CC1` (stereo not drawn) [Example 7, 6-Chloro-2-((1-(methylsulfonyl)piperidin-4-yl)amino)-8-(spiro[2,4]heptan-4-yl)pyrido[2,3-d]pyrimidin-7(8H)-one], for which the pIC50 in the assay with HCC1806 cells was 6.51; with Hs68 cells, 6.63.

`CNS(=O)(=O)N1CCC(Nc2ncc3ccc(=O)n([C@H]4CCCC45CC5)c3n2)CC1` [Example 31, (S)-N-methyl-4-((7-oxo-8-(spiro[2.4]heptan-4-yl)-7,8-dihydropyrido[2,3-d]pyrimidin-2-yl)amino)piperidine-1-sulfonamide]: the pIC50 is 6.93 with HCC1806 cells and 6.38 in the assay on Hs68 cells.

As to `Cc1cc2cnc(NC3CCN(S(C)(=O)=O)CC3)nc2n(C2CCCC23CC3)c1=O` (stereo not drawn) [Example 2, 6-Methyl-2-((1-(methylsulfonyl)piperidin-4-yl)amino)-8-(spiro[2,4]heptan-4-yl)pyrido[2,3-d]pyrimidin-7(8H)-one], the pIC50 with Hs68 cells is 6.49.

As to `CS(=O)(=O)N1CCC(Nc2ncc3ccc(=O)n([C@H]4CCCC45CC5)c3n2)CC1` [Example 24, (S)-2-((1-(methylsulfonyl)piperidin-4-yl)amino)-8-(spiro[2.4]heptan-4-yl)pyrido[2,3-d]pyrimidin-7(8H)-one], the pIC50 with HCC1806 cells was 7.11; in the assay with Hs68 cells it was 6.36.

On to `NS(=O)(=O)N1CCC(Nc2ncc3ccc(=O)n([C@H]4CCCC45CC5)c3n2)CC1` [Example 30, (S)-4-((7-oxo-8-(spiro[2.4]heptan-4-yl)-7,8-dihydropyrido[2,3-d]pyrimidin-2-yl)amino)piperidine-1-sulfonamide], for which, in the assay with HCC1806 cells, the pIC50 is 6.39.

In the case of `CS(=O)(=O)N1CCC(Nc2ncc3ccc(=O)n([C@@H]4CCCC45CC5)c3n2)CC1` [Example 23, (R)-2-((1-(methylsulfonyl)piperidin-4-yl)amino)-8-(spiro[2.4]heptan-4-yl)pyrido[2,3-d]pyrimidin-7(8H)-one], the pIC50 with HCC1806 cells was 6.82; in the assay with Hs68 cells it was 6.31.
